Measured values from patent US10265298B2, “Method of increasing the bioavailability of silybin” (Macau University of Science and Technology, priority 2017, dated 2019).
pIC50: −log10 of the molar value.

Tests used:
BCRP = target: T1, BCRP (Homo sapiens, UniProt Q9UNQ0); assay: Inhibition of pheophorbide A (Ph A) efflux in MDCKII-BCRP cell monolayers; conditions: for mean efflux ratio of Ph A in the presence of inhibitor: dog, 180 min
T1 sequence (Q9UNQ0 1-655): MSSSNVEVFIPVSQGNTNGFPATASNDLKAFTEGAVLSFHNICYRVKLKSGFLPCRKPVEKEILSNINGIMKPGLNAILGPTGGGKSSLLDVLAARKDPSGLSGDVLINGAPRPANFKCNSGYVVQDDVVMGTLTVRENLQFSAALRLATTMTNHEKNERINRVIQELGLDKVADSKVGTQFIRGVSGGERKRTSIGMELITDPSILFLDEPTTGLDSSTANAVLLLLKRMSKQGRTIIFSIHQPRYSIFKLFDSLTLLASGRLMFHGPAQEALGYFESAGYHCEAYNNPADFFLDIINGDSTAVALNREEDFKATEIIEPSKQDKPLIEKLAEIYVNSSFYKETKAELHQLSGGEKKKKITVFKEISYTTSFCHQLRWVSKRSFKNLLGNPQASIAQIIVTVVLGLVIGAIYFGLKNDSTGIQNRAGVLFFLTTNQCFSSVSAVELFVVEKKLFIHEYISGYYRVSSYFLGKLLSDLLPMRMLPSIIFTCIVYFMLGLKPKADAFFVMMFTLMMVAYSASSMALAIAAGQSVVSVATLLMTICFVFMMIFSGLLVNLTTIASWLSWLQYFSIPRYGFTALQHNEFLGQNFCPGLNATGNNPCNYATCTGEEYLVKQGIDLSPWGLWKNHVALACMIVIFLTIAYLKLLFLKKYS
Experimental: Parental Madin-Darby canine kidney II (MDCKII), multi-drug resistance gene 1-Madin-Darby canine kidney II (MDR1-MDCKII), breast cancer resistance protein-Madin-Darby canine kidney II (BCRP-MDCKII), and multi-drug resistance protein 2-Madin-Darby canine kidney II (MRP2-MDCKII) cells were kindly provided by the Netherlands Cancer Institute (Amsterdam, Netherlands) and frozen at −80° C. The MDCKII cells were cultured at 37° C./5% CO2 in Dulbecco's modified Eagle's medium supplemented with 10% fetal bovine serum, 1% nonessential amino acids, and 2% penicillin-streptomycin. The cells were seeded on transwell inserts (Corning Inc.) at a density of 2.0×10^5 cells/cm^2 and grown for 4-5 days to form confluent monolayers.
Bidirectional transport assays in human colorectal adenocarcinoma 2 (Caco-2) and Madin-Darby canine kidney II (MDCK II) was carried out by dosing substrates in assay buffer to either the apical chamber (A-to-B) or the basolateral chamber (B-to-A); cells were then incubated at 37° C. with shaking at 50 rotations per minute (rpm), and 100 μl samples were collected at 30, 60, 90, 120 and 180 minutes from the basolateral chamber to study the drug transport of AP to BL, or apical chamber to study the drug transport of BL to AP. Cell monolayers were then washed twice with ice-cold assay buffer and lysed with methanol on ice for 10 minutes. For inhibition studies, Caco-2 or MDCK II cell monolayers were pre-incubated with an inhibitor in both apical and basolateral chambers for 30 minutes, and bidirectional transport of 10 μM silybin was conducted in the absence (control) or presence of the inhibitor in both chambers. […] For fluorescence intensity detection, samples collected from AP or BL side were immediately detected in 96 well black plate by Microplate ultraviolet-visible spectroscopy (UV/VIS) spectrophotometer (TECAN infinite M200 PRO, Männedorf, Switzerland). In all cases, each determination was performed in triplicate.
The apparent permeability coefficients (Papp) were calculated as Papp=dQ/dt×1/(C“0”A) where dQ/dt (mM/sec) is the rate of permeation of the drug across the cells, C0 (millimolar (mM)) is the donor compartment concentration at time zero and A (cm^2) is the area of the cell monolayer. C0 is obtained from analysis of the dosing solution at the start experiment. Efflux Ratio (ER)=Papp (B to A)/Papp (A to B), while Papp (B−A) is the Papp value measured in the B to A direction, and Papp (A−B) is the Papp value measured in the A to B direction. 1.5 Preparation of Rat Sandwich-Cultured Hepatocytes
(§1) (*, P<0.05;**, P<0.01; ***, P<0.001 vs absence of any inhibitor. n=3).
as §1

[1] = test system: CCl4-induced acute liver injury; assay: CCl4-induced acute liver injury in rats; assay type: in vivo, rat
Experimental: Male SD rats were randomly divided into six groups: 1) Group I orally received blank vehicle for 7 days, and intraperitoneally (i.p.) injected with olive oil (2 ml/kg body weight) on day 7; 2) Group II orally received blank vehicle for 7 days, and injected with CCl4-olive oil mixture (40% CCl4, i.p., 2 ml/kg body weight) on day 7; 3) Group III was treated with silybin (100 mg/kg bodyweight, per os (p.o.) for 7 days, and injected with CCl4-olive oil mixture (40% CCl4, i.p., 2 ml/kg body weight) on day 7, 2 hour after administration of silybin; 4) Group IV was treated with silybin (100 mg/kg bodyweight, p.o.) and tangeretin (100 mg/kg bodyweight, p.o.) mixture for 7 days, and injected with CCl4-olive oil mixture (40% CCl4, i.p., 2 ml/kg body weight) on day 7, 2 hour after administration of the mixture; 5) Group V was treated with silybin (50 mg/kg bodyweight, p.o.) and tangeretin (50 mg/kg bodyweight, p.o.) mixture for 7 days, and injected with CCl4-olive oil mixture (40% CCl4, i.p., 2 ml/kg body weight) on day 7, 2 hour after administration of the mixture; 6) Group VI was treated with tangeretin (100 mg/kg bodyweight, p.o.) for 7 days, and injected with CCl4-olive oil mixture (40%, i.p., 2 ml/kg body weight) on day 7, 2 hour after administration of tangeretin. Model and control group were daily treated orally with blank solvent (35% PEG400: 15% Cremophor EL: 5% ethanol: 45% saline).
24 hours after the CCl4-induced toxic liver injury was initiated, rats were sacrificed under ether anesthesia. Blood was collected from the abdominal aorta for biochemical estimations. The liver was immediately removed and weighed. A large portion of the liver was snap-frozen in the liquid nitrogen and the remaining tissue was fixed in 10% buffer formalin, processed and embedded in paraffin for histological examination after hematoxylin and eosin (H&E) staining. Steatohepatitis was evaluated by level of alanine aminotransferase (ALT), aspartate aminotransferase (AST), triglycerides, total cholesterol and superoxide dismutase (SOD) using commercial kits (Nanjing Jiancheng Bioengineering Institute, Nanjing, China) according to manufacturer's instructions and histological assessment and scoring according to standardized criteria by a pathologist blind to the study.

[2] = after oral administration; cited from earlier work

SMILES | pIC50 (BCRP) | mean efflux ratio of Ph A in the presence of inhibitor (BCRP) | serum TG and TC levels ([1]; 100 mg/kg of silybin, p<0.01) | CCl4-induced macroscopic and histopathological liver changes (H&E) ([1]; 7 days oral pre-treatment, 24 hours after CCl4) | CCl4-induced increase of liver weight and liver to body weight ratio ([1]; 7 days oral pre-treatment, 24 hours after CCl4, p<0.05) | CCl4-induced increase of serum activity of ALT and AST ([1]; silybin 100 mg/kg for seven consecutive days) | share metabolized to glucuronide conjugates in human plasma [2] | share metabolized to sulfate conjugates in human plasma [2]
O=c1cc(-c2ccccc2)oc2cc(O)c(O)c(O)c12 [baicalein] | 4.65 | 1.48 | – | – | – | – | – | –
COc1cc(C2Oc3cc([C@H]4Oc5cc(O)cc(O)c5C(=O)[C@@H]4O)ccc3OC2CO)ccc1O (stereo partly shown) [silybin] | – | – | attenuated increases | less prominent | negated | significantly prevented | about 55% | about 28%
COc1ccc(-c2cc(=O)c3c(OC)c(OC)c(OC)c(OC)c3o2)cc1 [tangeretin] | 5.05 | 1.18 | – | – | – | – | – | –
